# Data: article PMC6591174, “The beneficial androgenic action of steroidal aromatase inactivators in estrogen-dependent breast cancer after failure of nonsteroidal drugs” (Cell Death & Disease, 2019)
# Tests used:
# [1] = system: AR protein in MCF-7 cells; experiment: AR protein expression by western blot and immunofluorescence; assay type: cell-based, human; settings: incubation 3 days
# Method: Fig. 3 Influence of indicated compounds on the expression of the AR. […] AR protein expression was analyzed by western blot as described in “Materials and methods”. b The densitometric evaluation of the bands is calculated by ImageJ. The numbers represent the densitometric value relative to untreated control. […] Typical image is shown. Scale bars: 10 μm
# Total cell proteins were obtained from 70% confluent cell cultures. Protein extracts of whole cells (50 μg) were denatured, separated by SDS–PAGE and transferred to polyvinylidene fluoride membranes. After blocking with 3% bovine serum albumin in Tris-buffered saline-Tween, membranes were probed overnight at 4 °C. […] After incubation with the appropriate secondary antibody, results were detected using ECL detection reagents. Immunoreactive bands were quantified by densitometry using ImageJ software.
# MCF-7 cells were seeded on 24-well plates (2 × 10^4 cells/well) with a poly-L-lysine-coated glass coverslip per well in 10% PRF–CT. […] Cells were visualized with a ×40 objective and a Qimaging digital camera coupled to an Olympus X71 fluorescence microscope using a red fluorescent protein filter.
# [2] = biological target: T1, Rat AR ligand-binding domains (His-GST-ARLBD) (Rattus norvegicus, UniProt P15207); experiment: AR fluorescence polarization-based competitive hormone-binding assay (PolarScreen AR Competitor Assay, Red); settings: 25 nM His-GST-ARLBD, 2 nM Fluormone AL Red; read-out: IC50 of competitive binding to AR
# T1 construct: purchased Invitrogen
# T1 sequence (P15207 651-882 limits assumed): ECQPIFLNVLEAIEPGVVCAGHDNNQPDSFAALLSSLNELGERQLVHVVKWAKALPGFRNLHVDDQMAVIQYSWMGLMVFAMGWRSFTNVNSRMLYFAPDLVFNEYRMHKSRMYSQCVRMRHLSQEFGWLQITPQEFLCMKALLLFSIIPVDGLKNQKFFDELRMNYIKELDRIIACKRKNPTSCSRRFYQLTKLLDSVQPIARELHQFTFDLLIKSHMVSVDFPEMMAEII
# Description: Fig. 4 The affinity of indicated compounds to the AR and their regulation of AR transcriptional activity. a AR fluorescence polarization-based competitive hormone-binding assays. […] Curve fitting was done using GraphPad Prism software (version 7.00). […] ARE(3×)-regulated dual-luciferase activity in U2-OS cells under steroid-free conditions. Cells were transiently transfected with pcDNA3.1-AR and ARE3-luc2P (firefly luciferase reporter plasmids) and the internal normalization control pRL-TK (Renilla luciferase reporter plasmid). Six hours after transfection, cells were treated as indicated. Then they were assayed 48 h after transfection for dual-luciferase activity. […] Briefly, compounds were dissolved in DMSO and mixed at 2% (vol/vol) with AR Red Screening Buffer. The tested compounds were subsequently serially diluted in two-fold increments with AR Red Screening Buffer and mixed 1:1 (vol/vol) with a 2 × AR/Fluormone AL complex. Competition for binding AR between Fluormone AL and the tested compounds was allowed to come to equilibrium for 4 h and not more than 20 h at room temperature in the dark. Fluorescence polarization value (mP) was measured on a fluorescence polarization plate reader (Biotech cytation5). Each compound dose was performed in triplicate, relative error was calculated from the standard error of the mean (SEM), and curve fitting was performed using GraphPad Prism™ 7.0 software.
# [3] = system: prostate (P), seminal vesicle (SV), levator ani muscle (LA); experiment: Hershberger assay in orchiectomized rats; assay type: in vivo, Wistar male rats; settings: doses as in Fig. 5, s.c. once a day, 12 days, castrated rats
# Method: Fig. 5 Estimation of the androgenic and myotrophic activities of the indicated compounds obtained by the Hershberger Assay. Wistar male rats were orchiectomized (orchi) or sham-operated (intact) under ether anesthesia. After 14 days of endogenous hormonal decline, animals were randomly allocated to treatment and vehicle groups (n = 6). The numbers at the end of the abbreviations correspond to the dose in mg/kg body weight of the animal. Flutamide was given by gavage (10 mg/kg/day). […] Then the animals were treated once a day. The rats were sacrificed after completion of the 12-day treatment. Following removal, wet weights of the prostate (P), seminal vesicle (SV), levator ani muscle (LA) were determined. a Size and shape of P, SV and LA at the end of the treatment period. b, c, and d, influence of treatment with the compounds alone or together with the antiandrogen flutamide at the indicated doses on the weight of the organs (P, SV and LA) of the castrated animals. The mean wet weight is represented by the bars in the graphs. Values are means ± SEM; bars, SEM. *P ≤ 0.05, **P ≤ 0.01 vs. control
# The Hershberger assay was performed according to the guidelines of the rodent Hershberger assay. Male Wistar rats (140 g, 5–6 weeks) were orchiectomized (orchi) or sham-operated (intact) under ether anesthesia. After 14 days of endogenous hormonal decline, animals were randomly allocated to treatment and vehicle groups (n = 6); orchi group = orchi rats receiving sham injections; intact group = sham-operated rats receiving sham injections; treatment group = orchi rats receiving drugs injections by subcutaneous. The antiandrogen flutamide given by gavage (10 mg/kg/day). Drugs were dissolved in ethanol and diluted in corn oil. The animals were treated once a day. Rats were sacrificed after completion of the 12-day treatment. Following removal, the wet weights of the P, SV, and LA muscle were determined. The data of tissue weights are presented as mean ± SEM.
Compound,Cyclin D1 mRNA and protein (cyclin D1 in MCF-7 cells),expression of the AR protein [1],IC50 [2] [µM],"androgenic effect (P and SVs, size and wet weight) [3]",myotrophic effect (LA) [3]
"C[C@]12CCC(=O)C[C@@H]1CC[C@@H]1[C@@H]2CC[C@]2(C)[C@@H](O)CC[C@@H]12 [DHT, dihydrotestosterone]",decrease,enhanced considerably,–,–,–
"C=C1C[C@H]2[C@@H]3CC[C@H](O)[C@@]3(C)CC[C@@H]2[C@@]2(C)C=CC(=O)C=C12 [17-HEXE, 17-hydroexemestane]",–,–,0.0104,a little more androgenic than 4-OHT,–
"C[C@]12CC[C@H]3[C@@H](CCC4=C(O)C(=O)CC[C@@]43C)[C@@H]1CC[C@@H]2O [4-OHT, 4-hydroxytestosterone]",–,–,0.0182,–,a little more myotrophic than 17-HEXE
